Like-named read-outs stand apart in the source and are kept apart here.
System: multidrug resistant strain of Plasmodium yoelii Nigeriensis
Assay: Antimalarial activity against multidrug resistant P. yoelii in Swiss mice (4-day treatment, observed till day 28)
Format: in vivo
Procedure: The antimalarial activity of the test compounds was evaluated in rodent using multidrug resistant strain of Plasmodium yoelii Nigeriensis in Swiss mice.
Random bred Swiss mice of either sex (20±2 gm) were inoculated intraperitoneally with 1×10^5 P. yoelii (MDR) parasites on day zero. Treatments with test compounds were administered to group of 5 mice each at different dose levels ranging between 12–96 mg/kg/day. Treatment was administered in groundnut oil intramuscularly and orally for 4 consecutive days (day 0–3). Blood smears from experimental mice were observed on day 4 and 7, day 10 and thereafter at regular intervals till day 28 or death of animal. Parasitaemia level on day 4 was compared with vehicle control group and percent suppression of parasitaemia in treated groups was calculated. […] The dose at which no parasitaemia develop during the observation period was reported as curative dose.

[1] = Swiss mice, 24 mg/kg/day, oral, day 0-3
[2] = Swiss mice, 24 mg/kg/day, oral, day 0-3, in groundnut oil
[3] = Swiss mice, 48 mg/kg/day, oral, day 0-3, in groundnut oil
[4] = Swiss mice, 24 mg/kg/day, oral, day 0-3, 24 mg/kg/day
[5] = Swiss mice, 48 mg/kg/day, oral, day 0-3, 48 mg/kg/day
[6] = Plasmodium yoelii, po, 96 h, Swiss mice, 24 mg/kg/day, oral, day 0-3, in groundnut oil, read-out: % Suppression on Day 4
[7] = Plasmodium yoelii, po, 96 h, Swiss mice, 48 mg/kg/day, oral, day 0-3, in groundnut oil, read-out: % Suppression on Day 4
[8] = Plasmodium yoelii, po, 672 h, Swiss mice, 24 mg/kg/day, oral, day 0-3, read-out: Mice alive on day-28 (converted)
[9] = Plasmodium yoelii, po, 96 h, Swiss mice, 96 mg/kg/day, oral, day 0-3, in groundnut oil, read-out: % Suppression on Day 4
[10] = Plasmodium yoelii, po, 672 h, Swiss mice, 96 mg/kg/day, oral, day 0-3, read-out: Mice alive on day-28 (converted)
[11] = Plasmodium yoelii, im, 96 h, Swiss mice, 96 mg/kg/day, im, day 0-3, in groundnut oil, read-out: % Suppression on Day 4
[12] = Plasmodium yoelii, im, 672 h, Swiss mice, 96 mg/kg/day, im, day 0-3, read-out: Mice alive on day-28 (converted)
[13] = Plasmodium yoelii, po, 672 h, Swiss mice, 48 mg/kg/day, oral, day 0-3, read-out: Mice alive on day-28 (converted)
[14] = Swiss mice, 24 mg/kg/day, oral, day 0-3, in groundnut oil, 24 mg/kg/day
[15] = Plasmodium yoelii, po, 96 h, read-out: % Suppression on Day 4
[16] = Plasmodium yoelii, po, 672 h, read-out: Mice alive on day-28

CCO[C@H]1O[C@@H]2O[C@@]3(C)CC[C@H]4[C@H](C)CC[C@@H]([C@H]1C)[C@@]24OO3 [β-Arteether, reference compound]
Mice alive on day-28 [1]: 1/5 | % Suppression on Day 4 [2]: 100% | Mice alive on day-28 (Swiss mice, 48 mg/kg/day, oral, day 0-3): 5/5 | % Suppression on Day 4 [3]: 100%

C=C(c1ccc(Cl)cc1)C1COC2(CCC(Nc3cc(Cl)cc(Cl)c3)CC2)OO1 (centres unmarked) [Compound 4cf, {3-[1-(4-Chloro-phenyl)-vinyl]-1,2,5-trioxa-spiro[5.5]undec-9-yl}-(3,5-dichloro-phenyl)-amine]
% Suppression on Day 4 [2]: 100% | Mice alive on day-28 [4]: 1/5 | % Suppression on Day 4 [3]: 100% | Mice alive on day-28 [5]: 2/5

C=C(c1ccc(Cl)cc1)C1COC2(CCC(Nc3cc(Cl)cc(Cl)c3)CC2)OO1 (centres unmarked) [Compound 4ce, {3-[1-(4-Chloro-phenyl)-vinyl]-1,2,5-trioxa-spiro[5.5]undec-9-yl}-(3,5-dichloro-phenyl)-amine]
inhibition in vivo at 24 mg/kg/day [6]: 100% | inhibition in vivo at 48 mg/kg/day [7]: 100% | responders at 24 mg/kg/day [8]: 40% | Mice alive on day-28 [5]: 4/5

C=C(c1ccc(OC)cc1)C1COC2(CCC(Nc3cc(Cl)cc(Cl)c3)CC2)OO1 (centres unmarked) [Compound 4dd, (3,5-Dichloro-Phenyl)-{3-[1-(4-Methoxy-Phenyl)-Vinyl]-1,2,5-Trioxa-Spiro[5.5]undec-9-yl}-Amine]
inhibition in vivo at 96 mg/kg/day [9]: 100% | responders at 96 mg/kg/day [10]: 80%

C=C(c1ccc(Cl)cc1)C1COC2(CCC(Nc3cccc4ccccc34)CC2)OO1 (centres unmarked) [Compound 4ch, {3-[1-(4-Chloro-phenyl)-vinyl]-1,2,5-trioxa-spiro[5.5]undec-9-yl}-naphthalen-1-yl-amine]
inhibition in vivo at 96 mg/kg/day [9]: 100% | responders at 96 mg/kg/day [10]: 40%

C=C(c1ccc(Cl)cc1)C1COC2(CCC(Nc3cccc(C(F)(F)F)c3)CC2)OO1 (centres unmarked) [Compound 4co, {3-[1-(4-Chloro-phenyl)-vinyl]-1,2,5-trioxa-spiro[5.5]undec-9-yl}-(3-trifluoromethyl-phenyl)-amine]
inhibition in vivo at 96 mg/kg/day [11]: 73% | responders at 96 mg/kg/day [12]: 0% | inhibition in vivo at 24 mg/kg/day [6]: 100% | inhibition in vivo at 48 mg/kg/day [7]: 100% | inhibition in vivo at 96 mg/kg/day [9]: 100% | responders at 24 mg/kg/day [8]: 60% | responders at 48 mg/kg/day [13]: 100% | responders at 96 mg/kg/day [10]: 100%

C=C(c1ccc(C)cc1)C1COC2(CCC(Nc3cc(Cl)cc(Cl)c3)CC2)OO1 (centres unmarked) [Compound 4ed, (3,5-Dichloro-Phenyl)-[3-(1-Tolyl-Vinyl)-1,2,5-Trioxa-Spiro[5.5]undec-9-yl]-Amine]
Mice alive on day-28 [1]: 0/5 | % Suppression on Day 4 [14]: 95% | % Suppression on Day 4 [3]: 100% | Mice alive on day-28 [5]: 4/5

C=C(c1ccc(C)cc1)C1COC2(CCC(Nc3cccc4ccccc34)CC2)OO1 (centres unmarked) [Compound 4eg, Naphthalen-1-yl-[3-(1-p-Tolyl-Vinyl)-1,2,5-Trioxa-Spiro[5.5]undec-9-yl]-Amine]
inhibition in vivo at 96 mg/kg/day [9]: 100% | responders at 96 mg/kg/day [10]: 100%

C=C(c1ccccc1)C1COC2(CCC(Nc3ccccc3-c3ccccc3)CC2)OO1 (centres unmarked) [Compound 4ab, Biphenyl-2-yl-[3-(1-Phenyl-Vinyl)-1,2,5-Trioxa-Spiro[5.5]undec-9-yl]Amine]
inhibition in vivo at 48 mg/kg/day [7]: 100% | inhibition in vivo at 96 mg/kg/day [9]: 100% | responders at 96 mg/kg/day [10]: 100% | Mice alive on day-28 [5]: 0/5

C=C(c1ccc(C)cc1)C1COC2(CCC(Nc3cccc(C(F)(F)F)c3)CC2)OO1 (centres unmarked) [Compound 4en, [3-(1-p-Tolyl-vinyl)-1,2,5-trioxa-spiro[5.5]undec-9-yl]-(3-trifluoromethyl-phenyl)-amine]
inhibition in vivo at 96 mg/kg/day [9]: 100% | responders at 96 mg/kg/day [10]: 60%

C=C(c1ccc(C)cc1)C1COC2(CCC(Nc3ccccc3)CC2)OO1 (centres unmarked) [Compound 4ea, Phenyl-[3-(1-p-Tolyl-Vinyl)-1,2,5-Trioxa-Spiro[5.5]undec-9-yl]-Amine]
inhibition in vivo at 96 mg/kg/day [11]: 96% | responders at 96 mg/kg/day [12]: 0% | inhibition in vivo at 96 mg/kg/day [9]: 100% | responders at 96 mg/kg/day [10]: 100%

C=C(c1ccccc1)C1COC2(CCC(Nc3cccc(C(F)(F)F)c3)CC2)OO1 (centres unmarked) [Compound 4ah, [3-(1-Phenyl-Vinyl)-1,2,5-Trioxa-Spiro[5.5]undec-9-yl]-(3-Trifluoromethyl-Phenyl)-Amine]
inhibition in vivo at 96 mg/kg/day [11]: 83% | responders at 96 mg/kg/day [12]: 0% | inhibition in vivo at 24 mg/kg/day [6]: 100% | inhibition in vivo at 48 mg/kg/day [7]: 100% | inhibition in vivo at 96 mg/kg/day [9]: 100% | responders at 24 mg/kg/day [8]: 20% | responders at 48 mg/kg/day [13]: 100% | responders at 96 mg/kg/day [10]: 100%

C=C(c1ccc(OC)cc1)C1COC2(CCC(Nc3ccccc3)CC2)OO1 (centres unmarked) [Compound 4da, {3-[1-(4-Methoxy-Phenyl)-Vinyl]-1,2,5-Trioxa-Spiro[5.5]undec-9-yl}-Phenyl-Amine]
inhibition in vivo at 96 mg/kg/day [11]: 81% | responders at 96 mg/kg/day [12]: 0% | inhibition in vivo at 96 mg/kg/day [9]: 100% | responders at 96 mg/kg/day [10]: 0%

C=C(c1ccccc1)C1COC2(CCC(Nc3ccc(Cl)cc3)CC2)OO1 (centres unmarked) [Compound 4aa, (4-Chloro-Phenyl)-[3-(1-Phenyl-Vinyl)-1,2,5-Trioxa-Spiro[5.5]undec-9-yl]-Amine]
inhibition in vivo at 96 mg/kg/day [11]: 71% | responders at 96 mg/kg/day [12]: 40% | inhibition in vivo at 48 mg/kg/day [7]: 100% | inhibition in vivo at 96 mg/kg/day [9]: 100% | responders at 48 mg/kg/day [13]: 60% | responders at 96 mg/kg/day [10]: 100%

C=C(c1ccc(OC)cc1)C1COC2(CCC(Nc3ccc(Cl)cc3)CC2)OO1 (centres unmarked) [Compound 4dc, (4-Chloro-Phenyl)-{3-[1-(4-Methoxy-Phenyl)-Vinyl]-1,2,5-Trioxa-Spiro[5.5]undec-9-yl}-Amine]
inhibition in vivo at 96 mg/kg/day [11]: 100% | responders at 96 mg/kg/day [12]: 80% | inhibition in vivo at 24 mg/kg/day [6]: 100% | inhibition in vivo at 48 mg/kg/day [7]: 100% | inhibition in vivo at 96 mg/kg/day [9]: 100% | responders at 24 mg/kg/day [8]: 80% | responders at 48 mg/kg/day [13]: 100% | responders at 96 mg/kg/day [10]: 100%

C=C(c1ccccc1)C1COC2(CCC(Nc3ccc(-c4ccccc4)cc3)CC2)OO1 (centres unmarked) [Compound 4ad, Biphenyl-4-yl-[3-(1-Phenyl-Vinyl)-1,2,5-Trioxa-Spiro[5.5]undec-9-yl]Amine]
inhibition in vivo at 12 mg/kg/day (Plasmodium yoelii, po, 96 h, Swiss mice, 12 mg/kg/day, oral, day 0-3, in groundnut oil, read-out: % Suppression on Day 4): 99% | inhibition in vivo at 24 mg/kg/day [6]: 100% | inhibition in vivo at 48 mg/kg/day [7]: 100% | inhibition in vivo at 96 mg/kg/day [9]: 100% | responders at 12 mg/kg/day (Plasmodium yoelii, po, 672 h, Swiss mice, 12 mg/kg/day, oral, day 0-3, read-out: Mice alive on day-28): 0% | responders at 24 mg/kg/day [8]: 60% | responders at 48 mg/kg/day [13]: 100% | responders at 96 mg/kg/day [10]: 100%

C=C(c1ccc(-c2ccccc2)cc1)C1COC2(CCC(Nc3ccccc3C(F)(F)F)CC2)OO1 (centres unmarked) [Compound 4bg, [3-(1-Biphenyl-4-yl-vinyl)-1,2,5-trioxa-spiro[5.5]undec-9-yl]-(2-trifluoromethyl-phenyl)-amine]
inhibition in vivo at 96 mg/kg/day [9]: 100% | responders at 96 mg/kg/day [10]: 40%

C=C(c1ccccc1)C1COC2(CCC(Nc3ccc4c(c3)-c3ccccc3C4)CC2)OO1 (centres unmarked) [Compound 4ae]
Mice alive on day-28 (Swiss mice, 96 mg/kg/day, oral, day 0-3): 5/5 | % Suppression on Day 4 (Swiss mice, 96 mg/kg/day, oral, day 0-3, in groundnut oil): 100%

CCN(CC)CCCC(C)Nc1ccnc2cc(Cl)ccc12 (centres unmarked) [Chloroquine, reference compound]
inhibition in vivo at 24 mg/kg/day [15]: 100% | inhibition in vivo at 48 mg/kg/day [15]: 100% | responders at 24 mg/kg/day [16]: 0% | responders at 48 mg/kg/day [16]: 40%

C=C(c1ccc(Cl)cc1)C1COC2(CCC(=O)CC2)OO1 (centres unmarked) [Compound 3c, 3-[1-(4-Chloro-Phenyl)-Vinyl]-1,2,5-Trioxa-Spiro[5.5]undecan-9-one]
inhibition in vivo at 96 mg/kg/day [9]: 100% | responders at 96 mg/kg/day [10]: 0%

C=C(c1ccc(Cl)cc1)C1COC2(CCC(Nc3ccc(-c4ccccc4)cc3)CC2)OO1 (centres unmarked) [Compound 4ck, Biphenyl-4-yl-{3-[1-(4-Chloro-Phenyl)-Vinyl]-1,2,5-Trioxa-Spiro[5.5]undec-9-yl}-Amine]
inhibition in vivo at 96 mg/kg/day [9]: 100% | responders at 96 mg/kg/day [10]: 40%

C=C(c1ccc(Cl)cc1)C1COC2(CCC(Nc3ccc(C)cc3)CC2)OO1 (centres unmarked) [Compound 4cb, {3-[1-(4-Chloro-Phenyl)-Vinyl]-1,2,5-Trioxa-Spiro[5.5]undec-9-yl}-p-Tolyl-Amine]
inhibition in vivo at 48 mg/kg/day [7]: 100% | responders at 48 mg/kg/day [13]: 100%

C=C(c1ccc(OC)cc1)C1COC2(CCC(Nc3ccccc3-c3ccccc3)CC2)OO1 (centres unmarked) [Compound 4dh, Biphenyl-2-yl-{3-[1-(4-methoxy-phenyl)-vinyl]-1,2,5-trioxa-spiro[5.5]undec-9-yl}-amine]
% Suppression on Day 4 [14]: 100% | Mice alive on day-28 [4]: 5/5 | % Suppression on Day 4 [3]: 100% | Mice alive on day-28 [5]: 5/5

Reference: patent US7071226B1, “Amino-functionalized 1,2,4-trioxanes useful as antimalarial agents and process for preparation thereof” (Council of Scientific and Industrial Research, priority 2004, dated 2006)
